The text below walks through data of patent US20040131545A1, “Amyloid plaque aggregation inhibitors and diagnostic imaging agents” (Trustees of the University of Pennsylvania, priority 2001, published 2004).

One data set concerns the target T1, aggregates of Aβ(1-42) (Homo sapiens, UniProt P05067).
T1 construct: The solid forms of peptides Aβ(1-40) and Aβ(1-42) were purchased; purchased Bachem (King of Prussia, Pa.)
Description: Inhibition of [125I]3 binding to aggregated Aβ(1-42) peptide in solution. To be noted: 25° C.; mean±SEM of three independent experiments; read-out: Inhibition constants (Ki) on ligand binding to aggregates of Aβ(1-42) vs [^125I]3. The protocol:
(§1) The solid forms of peptides Aβ(1-40) and Aβ(1-42) were purchased from Bachem (King of Prussia, Pa.). Aggregation of peptides were carried out by gently dissolving the peptide [0.5 mg/mL for Aβ(1-40) and 0.25 mg/mL for Aβ (1-42) in a buffer solution (pH 7.4) containing 10 mM sodium phosphate and 1 mM EDTA. The solutions were incubated at 37° C. for 36-42 h with gentle and constant shaking. Binding studies were carried out in 12×75 mm borosilicate glass tubes according to the procedure described with some modifications (Klunk, W. E., et al., Biol. Psychiatry 35:627 (1994)). Aggregated fibrils (10-50 nM in the final assay mixture) were added to the mixture containing […] of radioligands (0.01-0.5 nM) in 40% EtOH and 10% EtOH in a final volume of 1 mL for saturation studies. […] For inhibition studies, 1 mL of the reaction mixture contained […] of inhibitors (10-5-10-10 M in 10% EtOH) and 0.05 nM radiotracer in 40% EtOH. The mixture was incubated at room temperature for 3 h and the bound and the free radioactivity were separated by vacuum filtration through Whatman GF/B filters using a Brandel M-24R cell harvester followed by 2×3 mL washes of 10% ethanol at room temperature. Filters containing the bound I-125 ligand were counted in a gamma counter (Packard 5000) with 70% counting efficiency. The results of saturation and inhibition experiments were subjected to nonlinear regression analysis using software EBDA52 by which Kd and Ki values were calculated.
(§2) Values are the mean±SEM of three independent experiments, each in duplicates.

For another data set, the target named is fibrillar AP aggregates (Homo sapiens, UniProt P05067). The note with it: Mathis et al. 1997; read-out: inhibition constants (K′) for binding to fibrillar AP aggregates; cited from earlier work.
fibrillar AP aggregates, sequence (P05067 672-711): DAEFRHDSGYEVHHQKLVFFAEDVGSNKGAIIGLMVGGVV
The target in a further data set is T2, aggregates of Aβ(1-40) (Homo sapiens, UniProt P05067).
T2 construct: The solid forms of peptides Aβ(1-40) and Aβ(1-42) were purchased; purchased Bachem (King of Prussia, Pa.)
T2 sequence (P05067 672-711 limits assumed): as the sequence (P05067 672-711) above
Description: Inhibition of [125I]3 binding to aggregated Aβ(1-40) peptide in solution. The note with it: 25° C.; mean±SEM of three independent experiments; read-out: Inhibition constants (Ki) on ligand binding to aggregates of Aβ(1-40) vs [^125I]3. The procedure: as §1, §2

Data set [1] in a line: Partition coefficient determination (1-octanol/buffer). It counts as physicochemical. The note with it: 1-octanol / 0.1 M phosphate buffer pH 7.4, [125I]tracer. The protocol:
The test tube was vortexed for 3 min at room temperature, followed by centrifugation for 5 min. Two weighed samples (0.5 g each) from the 1-octanol and buffer layers were counted in a well counter. The partition coefficient was determined by calculating the ratio of cpm/g of 1-octanol to that of buffer. Samples from the 1-octanol layer were re-partitioned until consistent partitions of coefficient values were obtained. The measurement was done in triplicate and repeated three times.

Data set [2] can be described thus: In vivo biodistribution in normal mice after iv injection. To be noted: for Initial brain uptake / time at which brain uptake peaked / maximum brain uptake: mice; for Initial brain uptake: after an iv injection; for time at which brain uptake peaked / maximum brain uptake / Blood / Brain / Heart / Liver: iv; for maximum brain uptake: peak at 60 min; for Blood / Brain / Heart / Liver: normal mice. On the set-up: species or system ICR mice. The protocol: While under ether anesthesia, 0.15 mL of a saline solution containing labeled agents ([…]) was injected directly into the tail vein of ICR mice (2-3 month-old, average weight 20-30 g). The mice were sacrificed by cardiac excision at various time points post injection. The organs of interest were removed and weighed, and the radioactivity was counted with an automatic gamma counter (Packard 5000). The percentage dose per organ was calculated by a comparison of the tissue counts to suitably diluted aliquots of the injected material. Total activities of blood and muscle were calculated under the assumption that they were 7% and 40% of the total body weight, respectively.

T1 sequence (P05067 672-713 limits assumed): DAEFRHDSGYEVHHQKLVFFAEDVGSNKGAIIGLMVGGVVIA

Take `O=C(O)c1cc(/N=N/c2ccc(-c3ccc(/N=N/c4ccc(O)c(C(=O)O)c4)cc3)cc2)ccc1O` [Chrysamine G, reference compound]: the Ki was over 2000 nM on aggregates of Aβ(1-42), 370 nM at fibrillar AP aggregates and over 1000 nM on aggregates of Aβ(1-40).
For `CN(C)c1ccc(-c2nc3ccc(Br)cc3s2)cc1` [Compound 1, 2-(4′-Dimethylaminophenyl)-6-bromobenzothiazole], the Ki worked out at 0.8 ± 0.3 nM on aggregates of Aβ(1-42) and 1.9 ± 0.3 nM on aggregates of Aβ(1-40).
For `CN(C)c1ccc(-c2nc3ccc(I)cc3s2)cc1` [Compound 3, 2-(4′-Dimethylaminophenyl)-6-iodobenzothiazole], on aggregates of Aβ(1-42), the Ki is 2.2 ± 0.4 nM. The “Partition Coefficient (PC)” value in data set [1] turned out to be 70. Further, in data set [2], the Initial brain uptake stood at 0.67 % dose/organ, the “time at which brain uptake peaked” value turned out to be 60 min and the maximum brain uptake stood at 1.57 % dose/organ. Besides, at aggregates of Aβ(1-40), the Ki stood at 0.9 ± 0.2 nM.
Consider `CN1CCN(c2ccc(-c3nc4ccc(Br)cc4s3)cc2)CC1` [Compound 4, 2-[4′-(4″-Methylpiperazin-1-yl)-phenyl]-6-bromobenzothiazole], for which the Ki on aggregates of Aβ(1-42) was 5 ± 0.8 nM; at aggregates of Aβ(1-40), 1.6 ± 0.5 nM.
As to `CN1CCN(c2ccc(-c3nc4ccc(I)cc4s3)cc2)CC1` [Compound 6a, 2-[4′-(4″-Methylpiperazin-1-yl)-phenyl]-6-iodobenzothiazole], the Ki on aggregates of Aβ(1-42) stood at 6.4 ± 0.7 nM. In data set [1], the “Partition Coefficient (PC)” value amounted to 312. Also, in data set [2], the Initial brain uptake is 1.50 % dose/organ, the “time at which brain uptake peaked” value stood at 60 min and the maximum brain uptake was determined as 1.89 % dose/organ. For the same molecule, the Ki at aggregates of Aβ(1-40) amounted to 5.4 ± 0.7 nM.
Consider `CN(C)c1ccc(-c2nc3ccc([125I])cc3s2)cc1` [[^125I] Compound 3], for which the Blood worked out at 15.74 ± 6.06 % dose/organ in data set [2] (2 min); 3.26 ± 0.05 % dose/organ in data set [2] (30 min); 3.79 ± 0.19 % dose/organ in data set [2] (60 min (1 hr)); 1.44 ± 0.05 % dose/organ in data set [2] (6 h); 0.29 ± 0.09 % dose/organ in data set [2] (24 h). Also, the Brain came out at 0.67 ± 0.11 % dose/organ in data set [2] (2 min); 0.97 ± 0.29 % dose/organ in data set [2] (30 min); 1.57 ± 0.24 % dose/organ in data set [2] (60 min (1 hr)); 0.65 ± 0.11 % dose/organ in data set [2] (6 h); 0.04 ± 0.01 % dose/organ in data set [2] (24 h). In addition, the Heart in data set [2] (2 min) is on record as 1.79 ± 0.39 % dose/organ; in data set [2] (30 min), 0.20 ± 0.01 % dose/organ; in data set [2] (60 min (1 hr)) it was 0.17 ± 0.02 % dose/organ; in data set [2] (6 h), 0.05 ± 0.01 % dose/organ; in data set [2] (24 h) it was 0.01 ± 0.00 % dose/organ. Further, the Liver worked out at 31.62 ± 2.38 % dose/organ in data set [2] (2 min); 10.93 ± 2.34 % dose/organ in data set [2] (30 min); 9.21 ± 3.05 % dose/organ in data set [2] (60 min (1 hr)); 1.52 ± 0.30 % dose/organ in data set [2] (6 h); 0.30 ± 0.07 % dose/organ in data set [2] (24 h).
For `CN1CCN(c2ccc(-c3nc4ccc([125I])cc4s3)cc2)CC1` [[^125I] Compound 6a], the Blood in data set [2] (2 min) came to 8.02 ± 0.82 % dose/organ; in data set [2] (30 min), 5.15 ± 0.23 % dose/organ; in data set [2] (60 min (1 hr)) it was 4.16 ± 0.28 % dose/organ; in data set [2] (6 h) it was 1.49 ± 0.26 % dose/organ; in data set [2] (24 h), 0.41 ± 0.09 % dose/organ. Besides, the Brain came out at 1.50 ± 0.10 % dose/organ in data set [2] (2 min); 1.59 ± 0.19 % dose/organ in data set [2] (30 min); 1.89 ± 0.43 % dose/organ in data set [2] (60 min (1 hr)); 1.08 ± 0.08 % dose/organ in data set [2] (6 h); 0.91 ± 0.08 % dose/organ in data set [2] (24 h). The Heart came out at 2.19 ± 0.43 % dose/organ in data set [2] (2 min); 0.69 ± 0.02 % dose/organ in data set [2] (30 min); 0.66 ± 0.06 % dose/organ in data set [2] (60 min (1 hr)); 0.22 ± 0.06 % dose/organ in data set [2] (6 h); 0.08 ± 0.01 % dose/organ in data set [2] (24 h). Further, the Liver in data set [2] (2 min) is recorded as 28.84 ± 3.77 % dose/organ; in data set [2] (30 min), 21.22 ± 5.86 % dose/organ; in data set [2] (60 min (1 hr)), 17.20 ± 2.49 % dose/organ; in data set [2] (6 h), 5.79 ± 1.24 % dose/organ; in data set [2] (24 h), 3.05 ± 0.87 % dose/organ.
